Assay results: patent publication US6632963B1, “Bicyclic aromatic compounds and pharmaceutical/cosmetic compositions comprised thereof” (Galderma Research & Development S.N.C., priority 1998, dated 2003)

How the values were obtained:
RXRα [1] = target: T1, RXRα (Homo sapiens, UniProt P19793); test: RXRα transactivation, agonist activity; type: cell-based
T1 sequence (P19793 1-462): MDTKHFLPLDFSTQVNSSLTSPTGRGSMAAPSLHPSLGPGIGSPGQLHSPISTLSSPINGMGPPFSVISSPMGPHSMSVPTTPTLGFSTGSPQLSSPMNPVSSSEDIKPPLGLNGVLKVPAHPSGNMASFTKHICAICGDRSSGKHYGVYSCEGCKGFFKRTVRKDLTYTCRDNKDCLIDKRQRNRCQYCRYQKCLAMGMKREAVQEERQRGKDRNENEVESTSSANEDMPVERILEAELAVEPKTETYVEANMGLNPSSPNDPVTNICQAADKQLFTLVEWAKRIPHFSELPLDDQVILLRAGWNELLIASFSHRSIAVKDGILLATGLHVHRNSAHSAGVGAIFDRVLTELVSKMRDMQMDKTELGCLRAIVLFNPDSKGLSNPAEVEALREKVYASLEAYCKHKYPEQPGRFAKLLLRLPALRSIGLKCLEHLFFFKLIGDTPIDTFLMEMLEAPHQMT
Text: The binding and transactivation properties as RXR-receptor agonists can be determined by methods known in the art, such as, for example: Levin et al., Nature, 355, 359-61 (1992); Allenby et al., Proc. Natl. Acad. Sci., 90, 30-4 (1993).

RXRα [2] = target: T1, RXRα; test: cell-based

| melting point | AC50 (RXRα [1]) | RXRα transactivation Agonist AC50 (nM) (RXRα [1]) | IC50 (RXRα [2]) | Structure (SMILES) |
| --- | --- | --- | --- | --- |
| 188 to 189 °C | – | – | – | COCOc1c(-c2cccc(C=CC(=O)O)c2)ccc2c1C(C)(C)CCC2(C)C |
| – | 384 nM | – | – | COc1c(-c2cccc(C=CC(=O)O)c2)cc(C(C)(C)C)cc1C(C)(C)C [Compound 1, 3-(3′,5′-di-tert-Butyl-2′-methoxy-3-biphenylyl)acrylic Acid] |
| – | – | inactive | 920 nM | CC(C)(C)c1cc(-c2cc(C=CC(=O)O)ccc2O)c(OCc2ccccc2)c(C(C)(C)C)c1 [Compound 2, 3-(2′-Benzyloxy-3′,5′-di-tert-butyl-6-hydroxy-3-biphenylyl)acrylic Acid] |
| – | – | inactive | 729 nM | CCCCCOc1c(-c2cc(C=CC(=O)O)ccc2O)cc(C(C)(C)C)cc1C(C)(C)C [Compound 3, 3-(3′,5′-di-tert-Butyl-6-hydroxy-2′-pentyloxy-3-biphenylyl)acrylic Acid] |
| – | 165 nM | – | – | COc1c(-c2cc(C=CC(=O)O)ccc2O)cc(C(C)(C)C)cc1C(C)(C)C [Compound 4, 3-(3′,5′-di-tert-Butyl-6-hydroxy-2′-methoxy-3-biphenylyl)acrylic Acid] |
| – | – | inactive | 4000 nM | COCOc1ccc(C=CC(=O)O)cc1-c1cc2c(cc1OCc1ccccc1)C(C)(C)CCC2(C)C [Compound 5, 3-[3-(3-Benzyloxy-5,5,8,8-tetramethyl-5,6,7,8-tetrahydro-2-naphthyl)-4-methoxymethoxyphenyl]acrylic Acid] |
| – | 32 nM | – | – | COCOc1ccc(C#CC(=O)O)cc1-c1cc2c(cc1C)C(C)(C)CCC2(C)C [Compound 7, [4-Methoxymethoxy-3-(3,5,5,8,8-pentamethyl-5,6,7,8-tetrahydro-2-naphthyl)phenyl]propynoic Acid] |
| – | – | inactive | 631 nM | CCCCCOc1cc2c(cc1-c1cc(C=CC(=O)O)ccc1OCOC)C(C)(C)CCC2(C)C [Compound 9, 3-[3-(3-Pentyloxy-5,5,8,8-tetramethyl-5,6,7,8-tetrahydro-2-naphthyl)-4-methoxymethoxyphenyl]acrylic Acid] |

| Structure (SMILES) | melting point | AC50 (RXRα [1]) | RXRα transactivation Agonist AC50 (nM) (RXRα [1]) | IC50 (RXRα [2]) |
| --- | --- | --- | --- | --- |
| CC1(C)CCC(C)(C)c2cc(-c3cc(C=CC(=O)O)ccc3O)c(OCc3ccccc3)cc21 [Compound 6, 3-[3-(3-Benzyloxy-5,5,8,8-tetramethyl-5,6,7,8-tetrahydro-2-naphthyl)-4-hydroxyphenyl]acrylic Acid] | – | – | inactive | 505 nM |
| CCCOc1cc2c(cc1-c1cc(C=CC(=O)O)ccc1OCOC)C(C)(C)CCC2(C)C [Compound 8, 3-[3-(3-Propyloxy-5,5,8,8-tetramethyl-5,6,7,8-tetrahydro-2-naphthyl)-4-methoxymethoxyphenyl]acrylic Acid] | – | – | inactive | 1100 nM |
